The source of these data is ChEMBL document CHEMBL4364336, “Synthesis and exploration of 2-morpholino-4-phenylthiazol-5-yl acrylamide derivatives for their effects against carbonic anhydrase I, II, IX and XII isoforms as a non-sulfonamide class of inhibitors” (Bioorg Med Chem, 2019).

In general, Ki refers to the equilibrium dissociation constant of an inhibitor or competing ligand from its target.

In one experiment the target is Carbonic anhydrase 9 (Homo sapiens, UniProt Q16790). Nature of the experiment: Inhibition of recombinant human carbonic anhydrase9 preincubated for 10 mins followed by CO2 solution addition by phenol red dye based stopped flow CO2 hydration assay.
In another experiment the target is Carbonic anhydrase 2 (Homo sapiens, UniProt P00918). Nature of the experiment: Inhibition of recombinant human carbonic anhydrase2 preincubated for 10 mins followed by CO2 solution addition by phenol red dye based stopped flow CO2 hydration assay.
In the next experiment the target is Carbonic anhydrase 12 (Homo sapiens, UniProt O43570). Nature of the experiment: Inhibition of recombinant human carbonic anhydrase12 preincubated for 10 mins followed by CO2 solution addition by phenol red dye based stopped flow CO2 hydration assay.
Chain of Carbonic anhydrase 12 (O43570 whole entry): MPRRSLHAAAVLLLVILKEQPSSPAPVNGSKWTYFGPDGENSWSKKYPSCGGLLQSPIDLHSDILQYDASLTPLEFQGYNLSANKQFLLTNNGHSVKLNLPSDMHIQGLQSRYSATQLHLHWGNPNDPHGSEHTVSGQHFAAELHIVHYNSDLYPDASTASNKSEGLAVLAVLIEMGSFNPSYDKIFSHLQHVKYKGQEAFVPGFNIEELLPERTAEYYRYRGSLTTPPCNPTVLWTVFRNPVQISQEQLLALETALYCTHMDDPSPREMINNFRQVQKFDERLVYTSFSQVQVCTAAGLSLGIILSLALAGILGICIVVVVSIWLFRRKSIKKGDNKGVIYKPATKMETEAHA
A further experiment has as its target Carbonic anhydrase 1 (Homo sapiens, UniProt P00915). Nature of the experiment: Inhibition of recombinant human carbonic anhydrase1 preincubated for 10 mins followed by CO2 solution addition by phenol red dye based stopped flow CO2 hydration assay.

Chain of Carbonic anhydrase 1 (P00915 whole entry): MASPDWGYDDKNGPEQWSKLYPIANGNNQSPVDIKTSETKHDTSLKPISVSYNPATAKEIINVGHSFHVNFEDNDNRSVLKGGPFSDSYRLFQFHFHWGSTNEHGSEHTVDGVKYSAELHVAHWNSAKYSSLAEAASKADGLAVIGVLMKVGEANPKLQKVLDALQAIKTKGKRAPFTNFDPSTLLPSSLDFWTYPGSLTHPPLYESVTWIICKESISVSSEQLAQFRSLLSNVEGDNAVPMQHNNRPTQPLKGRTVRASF

`COc1ccc(NC(=O)/C=C/c2sc(N3CCOCC3)nc2-c2ccc(Cl)cc2)cc1`: the inhibition constant Ki on Carbonic anhydrase 9 is 94.9 µM; at Carbonic anhydrase 2, 50.4 µM; on Carbonic anhydrase 12 it was 7.5 µM; on Carbonic anhydrase 1 it was over 100 µM.
With `COc1ccc(NC(=O)/C=C/c2sc(N3CCOCC3)nc2-c2ccccc2)cc1OC`, the inhibition constant Ki at Carbonic anhydrase 9, on Carbonic anhydrase 2, at Carbonic anhydrase 12 and on Carbonic anhydrase 1 was over 100 µM each time.
Consider `COc1cc(NC(=O)/C=C/c2sc(N3CCOCC3)nc2-c2ccc(Cl)cc2)cc(OC)c1OC`, for which the Ki at Carbonic anhydrase 9, on Carbonic anhydrase 2, on Carbonic anhydrase 12 and at Carbonic anhydrase 1 was over 100 µM each time.
Regarding `COc1ccc(NC(=O)/C=C/c2sc(N3CCOCC3)nc2-c2ccccc2)cc1`, the Ki at Carbonic anhydrase 9, on Carbonic anhydrase 2, at Carbonic anhydrase 12 and on Carbonic anhydrase 1 was over 100 µM each time.
As for `COc1ccc(-c2nc(N3CCOCC3)sc2/C=C/C(=O)Nc2ccc(OC)c(OC)c2)cc1`, the Ki on Carbonic anhydrase 9, at Carbonic anhydrase 2, on Carbonic anhydrase 12 and at Carbonic anhydrase 1 was over 100 µM in each case.
In the case of `Nc1ccccc1NC(=O)/C=C/c1sc(N2CCOCC2)nc1-c1ccc(Cl)cc1`, the inhibition constant (Ki) at Carbonic anhydrase 9, on Carbonic anhydrase 2, on Carbonic anhydrase 12 and at Carbonic anhydrase 1 was over 100 µM in each case.
`O=C(/C=C/c1sc(N2CCOCC2)nc1-c1ccc(Cl)cc1)Nc1ccc(Br)cc1`: the inhibition constant Ki is 96.5 µM on Carbonic anhydrase 9, 67.8 µM on Carbonic anhydrase 2, over 100 µM at Carbonic anhydrase 12 and over 100 µM at Carbonic anhydrase 1.
With `O=C(/C=C/c1sc(N2CCOCC2)nc1-c1ccccc1)Nc1ccc(Br)cc1`, the inhibition constant (Ki) at Carbonic anhydrase 9, at Carbonic anhydrase 2, on Carbonic anhydrase 12 and on Carbonic anhydrase 1 was over 100 µM throughout.
As for `COc1cc(NC(=O)/C=C/c2sc(N3CCOCC3)nc2-c2ccccc2)cc(OC)c1OC`, the Ki on Carbonic anhydrase 9, on Carbonic anhydrase 2, at Carbonic anhydrase 12 and at Carbonic anhydrase 1 was over 100 µM each time.
Take `Nc1ccccc1NC(=O)/C=C/c1sc(N2CCOCC2)nc1-c1ccccc1`: the Ki at Carbonic anhydrase 9, on Carbonic anhydrase 2, at Carbonic anhydrase 12 and on Carbonic anhydrase 1 was over 100 µM each time.
As for `COc1ccc(-c2nc(N3CCOCC3)sc2/C=C/C(=O)Nc2cc(OC)c(OC)c(OC)c2)cc1`, the Ki at Carbonic anhydrase 9, at Carbonic anhydrase 2, on Carbonic anhydrase 12 and at Carbonic anhydrase 1 was over 100 µM in each case.
As to `COc1ccc(NC(=O)/C=C/c2sc(N3CCOCC3)nc2-c2ccc(Cl)cc2)cc1OC`, the Ki on Carbonic anhydrase 9, at Carbonic anhydrase 2, on Carbonic anhydrase 12 and on Carbonic anhydrase 1 was over 100 µM throughout.
With `O=C(/C=C/c1sc(N2CCOCC2)nc1-c1ccc([N+](=O)[O-])cc1)Nc1ccc(Br)cc1`, the inhibition constant (Ki) was 54.7 µM on Carbonic anhydrase 9, 9.3 µM on Carbonic anhydrase 2, 8.8 µM at Carbonic anhydrase 12 and over 100 µM at Carbonic anhydrase 1.
Turning to `COc1ccc(NC(=O)/C=C/c2sc(N3CCOCC3)nc2-c2ccc(OC)cc2)cc1`, the Ki on Carbonic anhydrase 9, on Carbonic anhydrase 2, at Carbonic anhydrase 12 and at Carbonic anhydrase 1 was over 100 µM throughout.
On to `COc1ccc(NC(=O)/C=C/c2sc(N3CCOCC3)nc2-c2ccc([N+](=O)[O-])cc2)cc1`, for which the Ki was 54.7 µM at Carbonic anhydrase 9, 39.2 µM at Carbonic anhydrase 2, 4.6 µM at Carbonic anhydrase 12 and over 100 µM at Carbonic anhydrase 1.
The corresponding values for `COc1ccc(-c2nc(N3CCOCC3)sc2/C=C/C(=O)Nc2ccccc2N)cc1` are over 100 µM, over 100 µM, over 100 µM and over 100 µM.
As for `Nc1ccccc1NC(=O)/C=C/c1sc(N2CCOCC2)nc1-c1ccc([N+](=O)[O-])cc1`, the inhibition constant (Ki) on Carbonic anhydrase 9 was 96.7 µM; at Carbonic anhydrase 2, 77.7 µM; at Carbonic anhydrase 12, over 100 µM; at Carbonic anhydrase 1, over 100 µM.
As for `COc1ccc(NC(=O)/C=C/c2sc(N3CCOCC3)nc2-c2ccc([N+](=O)[O-])cc2)cc1OC`, the Ki on Carbonic anhydrase 9, at Carbonic anhydrase 2, on Carbonic anhydrase 12 and on Carbonic anhydrase 1 was over 100 µM throughout.
Regarding `COc1ccc(-c2nc(N3CCOCC3)sc2/C=C/C(=O)Nc2ccc(Br)cc2)cc1`, the inhibition constant (Ki) at Carbonic anhydrase 9, at Carbonic anhydrase 2, at Carbonic anhydrase 12 and at Carbonic anhydrase 1 was over 100 µM in each case.
